{
  "source": "patent US9427433B2",
  "about": "“Methods and compositions for enhancing fertility and/or inhibiting pregnancy failure and restoring glucose tolerance” (Queen's University at Kingston, priority 2011, dated 2016)",
  "key": {"[1]": {"test_system": "type 2 diabetes NZO mouse model", "test": "HOMA-IR, HOMA-B and insulin sensitivity index (Si)", "format": "in vivo", "method": "Female mice were administered tacrolimus (0.1 mg/kg or 0.05 mg/kg, n=6/group), vehicle (n=10), pimecrolimus (0.1 mg/kg, n=6) or sirolimus (0.1 mg/kg, n=6) subcutaneously every other day for 3 weeks.\nHOMA IR=fasting glucose (mmol/L)×fasting insulin ([…])/22.5 according to the method of Bonora E et al., 2000. Pancreatic β-Cell function (HOMA-B) was calculated according to the method of Tresaco B et al., 2005, HOMA-B=[20×[…]). Insulin sensitivity (Si) was determined according to the method of Matthews D et al., 1985. Si=[basal glucose]−[glucose 15 min]/15)."}, "[2]": {"test_system": "diabetic and obese mice fed with 60% fat", "test": "Serum lipid profile", "format": "in vivo, mouse", "settings": "60% fat for 12 weeks; day 4.5 post-coitum", "source_text": "FIGS. 22A to 22H show results of tacrolimus restoring normal lipid profile in all treated diabetic and obese mice fed with 60% fat for 12 weeks. Normal serum levels of Triglycerides (FIG. 22A and FIG. 22B), Total Cholesterol (FIG. 22C and FIG. 22D), High-density Lipoprotein (HDL) Cholesterol (FIG. 22E and FIG. 22F) and lipid Ratio representing the overall lipid profile (FIG. 22G and FIG. 22H) were obtained after the administration of tacrolimus to the diabetic and obese mice despite their continued high fat calorie intake. Blood samples were taken at day 4.5 post-coitum and values on the Y-axis are plotted as power of 10."}, "[3]": {"test_system": "female NZO mice fed a continuous high fat diet", "test": "Weight loss, comparison of macrolides", "format": "in vivo, mouse", "settings": "tacrolimus 0.05 or 0.1 mg/kg, pimecrolimus 0.1 mg/kg, sirolimus 0.1 mg/kg s.c. every other day for three weeks; vs vehicle", "source_text": "For the comparative evaluation of other macrolide drugs to tacrolimus, mice starting at 7 weeks of age were maintained on the high fat diet for a total of 13 weeks of study period. Mice were entered into the experiments when determined to be glucose intolerant as described above. Methods of drug administration and other experimental methods were as described above."}, "IFN-γ mRNA": {"test_system": "IFN-γ mRNA", "test": "Decidual/placental IFN-γ mRNA levels", "format": "in vivo, mouse", "settings": "mid- to late pregnancy; NOD mice, 1 or 0.1 mg/kg q2d for three weeks with or without 10 mg/kg loading dose", "method": "In these studies, pregnancy progression and the glycemic control of mice treated with tacrolimus were examined. In an initial set of experiments, a loading dose of 10 mg/kg was initially administered to mice at the pre-diabetic stage followed by a maintenance dose of 1 or 0.1 mg/kg every other day (q2d) for three weeks after the last injection of which animals were allowed to mate and get pregnant. In an additional set of experiments mice were injected every other day with either 1 or 0.1 mg/kg dose for three weeks during the pre-diabetic stage and after the last injection of which mice were mated and examined for the progress of their pregnancy. Ultrasonic, vascular resistance index measurements, morphologic analyses were conducted on immunosuppressed and control NOD dams and their gestational uterine samples throughout pregnancy. Uterine, decidual and placental IFN-γ mRNA levels were also measured. Immunosuppressed NOD mice achieved and maintained normal glucose homeostasis with normal pregnancy pattern and a higher rate of viably implanted embryos and fetuses having normal phenotypic appearance. Placentae of NOD mice treated with tacrolimus were more deciduomatous, and the integrity of the stem, anchoring and branching placental villi were maintained. […]"}},
  "data": [
    {"smiles": "C=CC[C@@H]1/C=C(\\C)C[C@H](C)C[C@H](OC)[C@H]2O[C@@](O)(C(=O)C(=O)N3CCCC[C@H]3C(=O)O[C@H](/C(C)=C/[C@@H]3CC[C@@H](O)[C@H](OC)C3)[C@H](C)[C@@H](O)CC1=O)[C@H](C)C[C@@H]2OC", "note": "[tacrolimus]", "values": [
      {"measurement": "insulin resistance (HOMA-IR)", "setting": "[1]; p<0.001 vs vehicle", "value": "significantly reduced insulin resistance"},
      {"measurement": "insulin sensitivity (Si)", "setting": "[1]; p<0.01 vs vehicle", "value": "enhanced insulin sensitivity"},
      {"measurement": "pancreatic β-cell function (HOMA-B)", "setting": "[1]; p<0.05 vs vehicle", "value": "enhanced pancreatic β-cell function"},
      {"measurement": "lipid profile (triglycerides, total cholesterol, HDL cholesterol, lipid ratio)", "setting": "[2]", "value": "restored normal lipid profile"},
      {"measurement": "weight loss", "setting": "[3]", "value": "significantly induced weight loss"},
      {"measurement": "decidual/placental IFN-γ mRNA", "setting": "IFN-γ mRNA", "value": "Lower normal levels of decidual/placental IFN-γ mRNA"}
    ]}
  ]
}
